# US20240025884A1 (Dong-A ST Co., Ltd., priority 2022, published 2024)
# Target: GCN2 (Homo sapiens (Human), UniProt Q9P2K8)
# Test: GCN2 Biochemical Assay (TR-FRET, GFP-eIF2S1 substrate phosphorylation)
# Conditions: read-out: IC50 (GCN2 Inhibitory Activity)
# Method in brief: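 TR-FRET readout (Ex 340, Em 490/520 nm) after 2–3 h with Tb-labelled phospho-eIF2S1 antibody in stop mix, following a 70 min room-temperature kinase step. Reaction: in-house GCN2, GFP-eIF2S1, ATP, tRNA in Tris pH 7.5 (2× stocks 1.6 nM, 50 nM, 0.2 mM); compounds tested at 10 concentrations, with a phospho-substrate artifact counter-plate.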
# Chain of GCN2 (Q9P2K8 whole entry): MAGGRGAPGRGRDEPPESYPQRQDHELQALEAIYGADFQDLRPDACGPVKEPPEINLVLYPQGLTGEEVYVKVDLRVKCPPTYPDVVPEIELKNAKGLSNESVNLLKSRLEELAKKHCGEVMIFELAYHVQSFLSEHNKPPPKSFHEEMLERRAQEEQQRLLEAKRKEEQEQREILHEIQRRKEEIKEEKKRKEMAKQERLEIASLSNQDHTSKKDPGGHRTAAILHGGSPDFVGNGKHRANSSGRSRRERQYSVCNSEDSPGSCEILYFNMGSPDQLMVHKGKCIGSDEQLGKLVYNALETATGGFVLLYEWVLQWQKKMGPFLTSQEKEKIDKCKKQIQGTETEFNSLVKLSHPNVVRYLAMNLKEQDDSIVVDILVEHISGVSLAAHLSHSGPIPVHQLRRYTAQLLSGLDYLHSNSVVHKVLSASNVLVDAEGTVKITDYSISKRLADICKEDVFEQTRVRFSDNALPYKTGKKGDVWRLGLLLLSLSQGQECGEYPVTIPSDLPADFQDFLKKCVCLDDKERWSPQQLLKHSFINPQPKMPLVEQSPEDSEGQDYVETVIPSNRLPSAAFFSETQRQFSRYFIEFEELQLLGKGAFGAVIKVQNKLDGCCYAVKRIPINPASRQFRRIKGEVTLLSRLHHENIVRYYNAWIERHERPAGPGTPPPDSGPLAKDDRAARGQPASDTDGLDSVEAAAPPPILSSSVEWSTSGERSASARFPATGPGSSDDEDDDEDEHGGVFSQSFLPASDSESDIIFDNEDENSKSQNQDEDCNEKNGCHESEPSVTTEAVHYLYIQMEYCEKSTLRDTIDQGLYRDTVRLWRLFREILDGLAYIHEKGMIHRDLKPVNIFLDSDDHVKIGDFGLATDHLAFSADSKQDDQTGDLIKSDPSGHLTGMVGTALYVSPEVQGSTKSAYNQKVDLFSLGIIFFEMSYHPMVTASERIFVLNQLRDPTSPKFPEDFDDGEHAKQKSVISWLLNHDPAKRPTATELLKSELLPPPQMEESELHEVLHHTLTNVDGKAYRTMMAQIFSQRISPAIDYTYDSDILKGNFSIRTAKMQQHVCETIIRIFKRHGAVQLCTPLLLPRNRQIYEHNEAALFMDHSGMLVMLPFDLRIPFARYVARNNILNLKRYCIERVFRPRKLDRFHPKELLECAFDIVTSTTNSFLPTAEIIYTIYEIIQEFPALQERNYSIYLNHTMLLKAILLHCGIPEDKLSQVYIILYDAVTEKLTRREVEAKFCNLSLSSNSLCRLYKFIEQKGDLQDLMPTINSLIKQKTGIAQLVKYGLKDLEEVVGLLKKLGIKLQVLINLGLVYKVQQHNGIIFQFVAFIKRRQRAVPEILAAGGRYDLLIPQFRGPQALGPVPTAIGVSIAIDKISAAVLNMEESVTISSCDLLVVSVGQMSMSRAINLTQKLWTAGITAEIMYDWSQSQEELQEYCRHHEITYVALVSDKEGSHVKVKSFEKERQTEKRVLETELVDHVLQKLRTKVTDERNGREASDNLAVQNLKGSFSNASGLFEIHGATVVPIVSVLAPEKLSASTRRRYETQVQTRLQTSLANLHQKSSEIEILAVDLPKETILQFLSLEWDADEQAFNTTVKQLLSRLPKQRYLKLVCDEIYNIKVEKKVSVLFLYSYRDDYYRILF
row,Compound,IC50 [nM]
1,"Cc1cnc(Nc2cc(C)n(C)n2)nc1-c1c[nH]c2c(NC(=O)CN3CC[C@H](Oc4cc(N5CCC(O)CC5)ncn4)C3)cccc12 [Example 163, (S)-N-(3-(2-((1,5-dimethyl-1H-pyrazol-3-yl)amino)-5-methylpyrimidin-4-yl)-1H-indol-7-yl)-2-(3-((6-(4-hydroxypiperidin-1-yl)pyrimidin-4-yl)oxy)pyrrolidin-1-yl)acetamide]",< 10
2,"Cc1cnc(Nc2cc(C)n(C)n2)nc1-c1c[nH]c2c(NC(=O)CN3CC[C@H](Oc4cc(N5CCOCC5)ncn4)C3)cccc12 [Example 164, (S)-N-(3-(2-((1,5-dimethyl-1H-pyrazol-3-yl)amino)-5-methylpyrimidin-4-yl)-1H-indol-7-yl)-2-(3-((6-morpholinopyrimidin-4-yl)oxy)pyrrolidin-1-yl)acetamide]",< 10
3,"Cc1cnc(Nc2cc(C)n(C)n2)nc1-c1c[nH]c2c(NC(=O)CN3CC[C@H](Oc4cc(N5CCN(C)CC5)ncn4)C3)cccc12 [Example 165, (S)-N-(3-(2-((1,5-dimethyl-1H-pyrazol-3-yl)amino)-5-methylpyrimidin-4-yl)-1H-indol-7-yl)-2-(3-((6-(4-methylpiperazin-1-yl)pyrimidin-4-yl)oxy)pyrrolidin-1-yl)acetamide]",< 10
4,"CNc1cc(O[C@H]2CCN(CC(=O)Nc3cccc4c(-c5nc(Nc6cc(C)n(C)n6)ncc5C)c[nH]c34)C2)nc(N)n1 [Example 166, (S)-2-(3-((2-amino-6-(methylamino)pyrimidin-4-yl)oxy)pyrrolidin-1-yl)-N-(3-(2-((1,5-dimethyl-1H-pyrazol-3-yl)amino)-5-methylpyrimidin-4-yl)-1H-indol-7-yl)acetamide]",< 10
5,"Cc1cnc(Nc2cc(C)n(C)n2)nc1-c1c[nH]c2c(NC(=O)CN3CC[C@H](Oc4cc(N5CCCC5)nc(N)n4)C3)cccc12 [Example 167, (S)-2-(3-((2-amino-6-(pyrrolidin-1-yl)pyrimidin-4-yl)oxy)pyrrolidin-1-yl)-N-(3-(2-((1,5-dimethyl-1H-pyrazol-3-yl)amino)-5-methylpyrimidin-4-yl)-1H-indol-7-yl)acetamide]",10 to 100
6,"Cc1cnc(Nc2cc(C)n(C)n2)nc1-c1c[nH]c2c(NC(=O)CN3CC[C@H](Oc4nccc(N)n4)C3)cccc12 [Example 168, (S)-2-(3-((4-aminopyrimidin-2-yl)oxy)pyrrolidin-1-yl)-N-(3-(2-((1,5-dimethyl-1H-pyrazol-3-yl)amino)-5-methylpyrimidin-4-yl)-1H-indol-7-yl)acetamide]",< 10
7,"CNc1ccnc(O[C@H]2CCN(CC(=O)Nc3cccc4c(-c5nc(Nc6cc(C)n(C)n6)ncc5C)c[nH]c34)C2)n1 [Example 169, (S)-N-(3-(2-((1,5-dimethyl-1H-pyrazol-3-yl)amino)-5-methylpyrimidin-4-yl)-1H-indol-7-yl)-2-(3-((4-(methylamino)pyrimidin-2-yl)oxy)pyrrolidin-1-yl)acetamide]",< 10
8,"Cc1cnc(Nc2cc(C)n(C)n2)nc1-c1c[nH]c2c(NC(=O)CN3CC[C@H](Oc4nccc(N(C)C)n4)C3)cccc12 [Example 170, (S)-N-(3-(2-((1,5-dimethyl-1H-pyrazol-3-yl)amino)-5-methylpyrimidin-4-yl)-1H-indol-7-yl)-2-(3-((4-(dimethylamino)pyrimidin-2-yl)oxy)pyrrolidin-1-yl)acetamide]",< 10
9,"CCN(C)c1ccnc(O[C@H]2CCN(CC(=O)Nc3cccc4c(-c5nc(Nc6cc(C)n(C)n6)ncc5C)c[nH]c34)C2)n1 [Example 171, (S)-N-(3-(2-((1,5-dimethyl-1H-pyrazol-3-yl)amino)-5-methylpyrimidin-4-yl)-1H-indol-7-yl)-2-(3-((4-(ethyl(methyl)amino)pyrimidin-2-yl)oxy)pyrrolidin-1-yl)acetamide]",< 10
10,"CCN(CC)c1ccnc(O[C@H]2CCN(CC(=O)Nc3cccc4c(-c5nc(Nc6cc(C)n(C)n6)ncc5C)c[nH]c34)C2)n1 [Example 172, (S)-2-(3-((4-(diethylamino)pyrimidin-2-yl)oxy)pyrrolidin-1-yl)-N-(3-(2-((1,5-dimethyl-1H-pyrazol-3-yl)amino)-5-methylpyrimidin-4-yl)-1H-indol-7-yl)acetamide]",< 10
11,"Cc1cnc(Nc2cc(C)n(C)n2)nc1-c1c[nH]c2c(NC(=O)CN3CC[C@H](Oc4nccc(N5CCCC5)n4)C3)cccc12 [Example 173, (S)-N-(3-(2-((1,5-dimethyl-1H-pyrazol-3-yl)amino)-5-methylpyrimidin-4-yl)-1H-indol-7-yl)-2-(3-((4-(pyrrolidin-1-yl)pyrimidin-2-yl)oxy)pyrrolidin-1-yl)acetamide]",< 10
12,"Cc1cnc(Nc2cc(C)n(C)n2)nc1-c1c[nH]c2c(NC(=O)CN3CC[C@H](Oc4nccc(N5CCCCC5)n4)C3)cccc12 [Example 174, (S)-N-(3-(2-((1,5-dimethyl-1H-pyrazol-3-yl)amino)-5-methylpyrimidin-4-yl)-1H-indol-7-yl)-2-(3-((4-(piperidin-1-yl)pyrimidin-2-yl)oxy)pyrrolidin-1-yl)acetamide]",< 10
13,"Cc1cnc(Nc2cc(C)n(C)n2)nc1-c1c[nH]c2c(NC(=O)CN3CC[C@H](Oc4nccc(NC5CC5)n4)C3)cccc12 [Example 175, (S)-2-(3-((4-(cyclopropylamino)pyrimidin-2-yl)oxy)pyrrolidin-1-yl)-N-(3-(2-((1,5-dimethyl-1H-pyrazol-3-yl)amino)-5-methylpyrimidin-4-yl)-1H-indol-7-yl)acetamide]",< 10
14,"Cc1cnc(Nc2cc(C)n(C)n2)nc1-c1c[nH]c2c(NC(=O)CN3CC[C@H](Oc4ncc(F)c(N)n4)C3)cccc12 [Example 176, (S)-2-(3-((4-amino-5-fluoropyrimidin-2-yl)oxy)pyrrolidin-1-yl)-N-(3-(2-((1,5-dimethyl-1H-pyrazol-3-yl)amino)-5-methylpyrimidin-4-yl)-1H-indol-7-yl)acetamide]",10 to 100
15,"CNc1nc(O[C@H]2CCN(CC(=O)Nc3cccc4c(-c5nc(Nc6cc(C)n(C)n6)ncc5C)c[nH]c34)C2)ncc1F [Example 177, (S)-N-(3-(2-((1,5-dimethyl-1H-pyrazol-3-yl)amino)-5-methylpyrimidin-4-yl)-1H-indol-7-yl)-2-(3-((5-fluoro-4-(methylamino)pyrimidin-2-yl)oxy)pyrrolidin-1-yl)acetamide]",< 10
16,"CCNc1nc(O[C@H]2CCN(CC(=O)Nc3cccc4c(-c5nc(Nc6cc(C)n(C)n6)ncc5C)c[nH]c34)C2)ncc1F [Example 178, (S)-N-(3-(2-((1,5-dimethyl-1H-pyrazol-3-yl)amino)-5-methylpyrimidin-4-yl)-1H-indol-7-yl)-2-(3-((4-(ethylamino)-5-fluoropyrimidin-2-yl)oxy)pyrrolidin-1-yl)acetamide]",< 10
17,"Cc1cnc(Nc2cc(C)n(C)n2)nc1-c1c[nH]c2c(NC(=O)CN3CC[C@H](Oc4ncc(F)c(NC5CC5)n4)C3)cccc12 [Example 179, (S)-2-(3-((4-(cyclopropylamino)-5-fluoropyrimidin-2-yl)oxy)pyrrolidin-1-yl)-N-(3-(2-((1,5-dimethyl-1H-pyrazol-3-yl)amino)-5-methylpyrimidin-4-yl)-1H-indol-7-yl)acetamide]",< 10
18,"Cc1cnc(Nc2cc(C)n(C)n2)nc1-c1c[nH]c2c(NC(=O)CN3CC[C@H](Oc4ncc(F)c(NC5CCCCC5)n4)C3)cccc12 [Example 180, (S)-2-(3-((4-(cyclohexylamino)-5-fluoropyrimidin-2-yl)oxy)pyrrolidin-1-yl)-N-(3-(2-((1,5-dimethyl-1H-pyrazol-3-yl)amino)-5-methylpyrimidin-4-yl)-1H-indol-7-yl)acetamide]",10 to 100
19,"Cc1cnc(Nc2cc(C)n(C)n2)nc1-c1c[nH]c2c(NC(=O)CN3CC[C@H](Oc4ncc(F)c(N(C)C)n4)C3)cccc12 [Example 181, (S)-N-(3-(2-((1,5-dimethyl-1H-pyrazol-3-yl)amino)-5-methylpyrimidin-4-yl)-1H-indol-7-yl)-2-(3-((4-(dimethylamino)-5-fluoropyrimidin-2-yl)oxy)pyrrolidin-1-yl)acetamide]",< 10
20,"CCN(C)c1nc(O[C@H]2CCN(CC(=O)Nc3cccc4c(-c5nc(Nc6cc(C)n(C)n6)ncc5C)c[nH]c34)C2)ncc1F [Example 182, (S)-N-(3-(2-((1,5-dimethyl-1H-pyrazol-3-yl)amino)-5-methylpyrimidin-4-yl)-1H-indol-7-yl)-2-(3-((4-(ethyl(methyl)amino)-5-fluoropyrimidin-2-yl)oxy)pyrrolidin-1-yl)acetamide]",< 10
21,"CCN(CC)c1nc(O[C@H]2CCN(CC(=O)Nc3cccc4c(-c5nc(Nc6cc(C)n(C)n6)ncc5C)c[nH]c34)C2)ncc1F [Example 183, (S)-2-(3-((4-(diethylamino)-5-fluoropyrimidin-2-yl)oxy)pyrrolidin-1-yl)-N-(3-(2-((1,5-dimethyl-1H-pyrazol-3-yl)amino)-5-methylpyrimidin-4-yl)-1H-indol-7-yl)acetamide]",< 10
22,"Cc1cnc(Nc2cc(C)n(C)n2)nc1-c1c[nH]c2c(NC(=O)CN3CC[C@H](Oc4ncc(F)c(N(C)c5ccccc5)n4)C3)cccc12 [Example 184, (S)-N-(3-(2-((1,5-dimethyl-1H-pyrazol-3-yl)amino)-5-methylpyrimidin-4-yl)-1H-indol-7-yl)-2-(3-((5-fluoro-4-(methyl(phenyl)amino)pyrimidin-2-yl)oxy)pyrrolidin-1-yl)acetamide]",10 to 100
23,"Cc1cnc(Nc2cc(C)n(C)n2)nc1-c1c[nH]c2c(NC(=O)CN3CC[C@H](Oc4ncc(F)c(N(C)Cc5ccccc5)n4)C3)cccc12 [Example 185, (S)-2-(3-((4-(benzyl(methyl)amino)-5-fluoropyrimidin-2-yl)oxy)pyrrolidin-1-yl)-N-(3-(2-((1,5-dimethyl-1H-pyrazol-3-yl)amino)-5-methylpyrimidin-4-yl)-1H-indol-7-yl)acetamide]",< 10
24,"Cc1cnc(Nc2cc(C)n(C)n2)nc1-c1c[nH]c2c(NC(=O)CN3CC[C@H](Oc4ncc(F)c(N5CCCC5)n4)C3)cccc12 [Example 186, (S)-N-(3-(2-((1,5-dimethyl-1H-pyrazol-3-yl)amino)-5-methylpyrimidin-4-yl)-1H-indol-7-yl)-2-(3-((5-fluoro-4-(pyrrolidin-1-yl)pyrimidin-2-yl)oxy)pyrrolidin-1-yl)acetamide]",< 10
